target: Complex I; experiment: Assay A: Determination of Complex I mediated ROS-inhibition (CI); type: biochemical; conditions: read-out: CI IC50; ROS generation by Complex I purified from bovine heart, Amplex Red/horse radish peroxidase readout, 8 point concentration-response

With `CC(C)Nc1ccc2c(c1)/C(=C1\CN(C3CCOCC3)CCN1)C(=O)N2C1CCOCC1` [Compound 24] as the molecule, how does the IC50 read?
The IC50 was 48 nM.

For `CC(C)Nc1ccc2c(c1)/C(=C1\CCN(C(C)C)CCN1)C(=O)N2C1CCOCC1` [Compound 164], which IC50 is on record?
Its IC50 is 172 nM.

For `CC(C)Nc1ccc2c(c1)/C(=C1\CC3(CN1)COC3)C(=O)N2C1CCOCC1` [Compound 165], which IC50 is on record?
The IC50 was 181 nM.

For `CC(C)N1C(=O)/C(=C2/COCCN2)c2cc(N3CCOCC3)ccc21` [Compound 166], which IC50 is on record?
Its IC50 is 75 nM.

How did the IC50 turn out when `CC(C)Nc1ccc2c(c1)/C(=C1\COCCCN1)C(=O)N2C1CCOCC1` [Compound 167] was run?
Its IC50 is 65 nM.

With `O=C1/C(=C2/COCCN2)c2cc(NC3CCOC3)ccc2N1C1CCOC1` (stereo not drawn) [Compound 168] as the molecule, how does the IC50 read?
Its IC50 is 41 nM.

For `O=C(CCO)Nc1ccc2c(c1)/C(=C1\COCCN1)C(=O)N2C1CCOC1` (stereo not drawn) [Compound 169], which IC50 is on record?
The IC50 was 944 nM.

Which IC50 does the source give for `CC(=O)N1CC[C@H](N2C(=O)/C(=C3/COCCN3)c3cc(NC(C)C)ccc32)C1` [Compound 170] here?
The IC50 was 23 nM.

How did the IC50 turn out when `CCC(CC)Nc1ccc2c(c1)/C(=C1\COCCN1)C(=O)N2C(C)C` [Compound 171] was run?
The IC50 was 206 nM.

Which IC50 does the source give for `CC(=O)N1CCC(Nc2ccc3c(c2)/C(=C2\COCCN2)C(=O)N3C(C)C)CC1` [Compound 172] here?
The IC50 was 78 nM.

How did the IC50 turn out when `CC(C)CNc1ccc2c(c1)/C(=C1\COCCN1)C(=O)N2C(C)C` [Compound 173] was run?
Its IC50 is 367 nM.

Which IC50 does the source give for `CC1OCCC1Nc1ccc2c(c1)/C(=C1\COCCN1)C(=O)N2C1CCOCC1` (stereo not drawn) [Compound 174] here?
Its IC50 is 39 nM.

Which IC50 does the source give for `O=C1/C(=C2/COCCN2)c2cc(NC3COC3)ccc2N1C1CCOCC1` [Compound 175] here?
Its IC50 is 97 nM.

tested on: HT-22 cells; experiment: not given; type: cell-based, mice; conditions: Mus musculus, HT-22, 16 h, read-out: HT22 IC50

With `CCOC(=O)N1CCC(N2C(=O)/C(=C3/COCCN3)c3cc(N4C(C)CCC4C)ccc32)CC1` (stereo not drawn) [Compound 11] as the molecule, how does the IC50 read?
Its IC50 is 38 nM.

Which IC50 does the source give for `Nc1ccc2c(c1)/C(=C1/NCCN(C(=O)OCc3ccccc3)C1O)C(=O)N2C1CCNCC1` (stereo not drawn) [Compound 87] here?
Its IC50 is 1000 nM.

How did the IC50 turn out when `CC(C)Nc1ccc2c(c1)/C(=C1\COCCN1)C(=O)N2C1CCN(C(C)C)CC1` [Compound 92] was run?
The IC50 was 44 nM.

With `CN1CCC(N2C(=O)/C(=C3/CCCN3)c3cc(N(C)C)ccc32)CC1` [Compound 109] as the molecule, how does the IC50 read?
The IC50 was 160 nM.

same assay, conditions: Mus musculus; protection of HT-22 cells from glutamate (5 mM) induced cell death, 16 hours, Alamar Blue viability; read-out: HT22 IC50

How did the IC50 turn out when `CC(C)Nc1ccc2c(c1)/C(=C1\CN(C3CCOCC3)CCN1)C(=O)N2C1CCOCC1` [Compound 24] was run?
Its IC50 is 123 nM.

Reference: US11795147B2, “Modulators of complex I” (Boehringer Ingelheim International GmbH, priority 2019, dated 2023)
